Structures are written as SMILES.

The logP is the decadic logarithm of the partition coefficient of the neutral form, usually between octanol and water. A high value points to a more lipophilic compound. In turn, `COc1cccc2cc(C(=O)Nc3cc(C)cc(C)n3)oc12` came in with a logP of 4.27.

The molecule `Cc1cc(C)nc(NC(=O)c2cccc(Cl)c2)c1` came in with a logP of 3.88.

In turn, `Cc1cc(C)nc(NC(=O)c2ccccc2)c1` gave a logP of 3.09.

As to `Cc1cc(C)nc(NC(=O)C(C)c2ccccc2)c1` (configuration not stated), the logP stood at 3.67.

Take `Cc1cc(C)nc(NC(=O)c2cccc([N+](=O)[O-])c2)c1`: the logP came to 3.13.

Consider `Cc1cc(C)nc(NC(=O)c2cccc(Br)c2)c1`, for which the logP amounted to 4.04.

Molecule `Cc1cc(C)nc(NC(=S)c2ccc(C)o2)c1` came in with a logP of 3.2.

Consider `Cc1cc(C)nc(NC(=O)c2ccco2)c1`, for which the logP was determined as 2.25.

As to `Cc1cc(C)nc(NC(=O)Cc2ccc(Br)cc2)c1`, the logP is 4.07.

As for `Cc1cc(C)nc(NC(=O)c2cc3ccccc3s2)c1`, the logP stood at 4.08.

In turn, `Cc1cc(C)nc(NC(=O)c2ccc(Br)s2)c1` yielded a logP of 3.74.

As to `Cc1cc(C)nc(NC(=O)C(c2ccccc2)c2ccccc2)c1`, the logP is 4.77.

Molecule `Cc1cc(C)nc(NC(=O)c2cc3ccccc3o2)c1` came in with a logP of 3.54.

With `Cc1cc(C)nc(NC(=O)c2ccc([N+](=O)[O-])o2)c1`, the log partition coefficient (logP) stood at 2.39.

In the case of `CC(=O)Oc1ccccc1C(=O)Nc1cc(C)cc(C)n1`, the log partition coefficient (logP) worked out at 2.35.

Consider `Cc1cc(C)nc(NC(=O)c2cccc(F)c2)c1`, for which the logP was determined as 3.31.

For `Cc1cc(C)nc(NC(=O)c2cccn2C)c1`, the log partition coefficient (logP) stood at 2.42.

Consider `Cc1cc(C)nc(NC(=S)c2ccccc2)c1`, for which the logP is 3.45.

`Cc1cc(C)nc(NC(=O)c2cccs2)c1` yielded a logP of 2.77.

With `Cc1cc(C)nc(NC(=O)c2ccc(C)o2)c1`, the logP is 2.75.

The molecule `Cc1cc(C)nc(NC(=O)c2ccc(Br)o2)c1` returned a lipophilicity (logP) of 3.22.

With `Cc1cc(C)nc(NC(=O)c2cccc(C#N)c2)c1`, the logP was determined as 2.88.

The record behind these values is the SangsterLogP compilation.
